Measured values published in KR20120090118A, “자귀나무 추출물을 포함하는 항암 또는 항암 보조용 조성물” (학교법인 동의학원, priority 2010, dated 2012).

What was measured:
[1] = tested on: human Jurkat T cells [Human Jurkat T세포]; assay: Combination of Julibroside III and doxorubicin: cytotoxicity (MTT assay, 48 h) and FIC in Jurkat T cells; assay type: cell-based
[2] = tested on: mouse liver or kidney [마우스의 간이나 신장]; assay: Safety in mice: histological signs of toxicity in liver or kidney (in vivo sarcoma experiment); settings: up to 100mg/kg
[3] = doxorubicin and Julibroside III used in combination

For C=C[C@](C)(CC/C=C(\C)C(=O)O[C@H]1[C@H](O)[C@@H](O)[C@H](O[C@](C)(C=C)CC/C=C(\C)C(=O)O[C@H]2C[C@]3(C(=O)O[C@@H]4O[C@H](CO)[C@@H](O)[C@H](O)[C@H]4O[C@@H]4O[C@@H](C)[C@H](O[C@@H]5O[C@@H](CO)[C@H](O)[C@H]5O)[C@@H](O[C@@H]5O[C@H](CO)[C@@H](O)[C@H](O)[C@H]5O)[C@H]4O)[C@H](O)C[C@]4(C)C(=CC[C@@H]5[C@@]6(C)CC[C@H](O[C@@H]7O[C@H](CO[C@@H]8O[C@H](C)[C@H](O)[C@H](O)[C@H]8O[C@@H]8OC[C@@H](O)[C@H](O)[C@H]8O)[C@@H](O)[C@H](O)[C@H]7NC(C)=O)C(C)(C)[C@@H]6CC[C@]54C)[C@@H]3CC2(C)C)O[C@@H]1C)O[C@@H]1O[C@H](C)[C@@H](O)[C@H](O)[C@H]1O [Julibroside III], the IC50 [1, 3] was 0.63 µg/mL, the IC50 ([1]; treated alone) was 2.5 µg/mL and the “histological signs of toxicity in liver or kidney” value [2] was “징후가 전혀 없음”.

Work on COc1cccc2c1C(=O)c1c(O)c3c(c(O)c1C2=O)C[C@@](O)(C(=O)CO)C[C@@H]3O[C@H]1C[C@H](N)[C@H](O)[C@H](C)O1 [독소루비신, reference compound] yielded an IC50 [1, 3] of 0.16 µg/mL and an IC50 ([1]; treated alone) of 0.31 µg/mL.
